In brackets after ≈: the same amount, converted by molar mass. Starred links: 1 amine or outer side, 2 acyl side, 3 side chain; linkers in the order of their positions; H or OH if unused. Positions of bridges follow the written chain, without caps; N, C: chain ends. Non-standard residues stand in square brackets, D forms with d. Residues, ends and D or L forms follow the SMILES beside them. Chains are numbered I, II in the order given. Actinocin(9to1) = Cc1c2oc3c(C)ccc(C(=O)[*:1])c3nc-2c(C(=O)[*:2])c(N)c1=O; NMeV = CN[C@H](C(=O)O)C(C)C; Sar = CNCC(=O)O

One may read the solubility as the concentration that dissolves in the medium under given conditions.

Data set [1] deals with T1, human androgen receptor (hAR) (Homo sapiens, UniProt P10275).
T1 construct: host or cells: U2-OS human osteosarcoma cells (ATCC HTB 96), stably transfected (AR-CALUX cell line)
T1 sequence (P10275 1-920): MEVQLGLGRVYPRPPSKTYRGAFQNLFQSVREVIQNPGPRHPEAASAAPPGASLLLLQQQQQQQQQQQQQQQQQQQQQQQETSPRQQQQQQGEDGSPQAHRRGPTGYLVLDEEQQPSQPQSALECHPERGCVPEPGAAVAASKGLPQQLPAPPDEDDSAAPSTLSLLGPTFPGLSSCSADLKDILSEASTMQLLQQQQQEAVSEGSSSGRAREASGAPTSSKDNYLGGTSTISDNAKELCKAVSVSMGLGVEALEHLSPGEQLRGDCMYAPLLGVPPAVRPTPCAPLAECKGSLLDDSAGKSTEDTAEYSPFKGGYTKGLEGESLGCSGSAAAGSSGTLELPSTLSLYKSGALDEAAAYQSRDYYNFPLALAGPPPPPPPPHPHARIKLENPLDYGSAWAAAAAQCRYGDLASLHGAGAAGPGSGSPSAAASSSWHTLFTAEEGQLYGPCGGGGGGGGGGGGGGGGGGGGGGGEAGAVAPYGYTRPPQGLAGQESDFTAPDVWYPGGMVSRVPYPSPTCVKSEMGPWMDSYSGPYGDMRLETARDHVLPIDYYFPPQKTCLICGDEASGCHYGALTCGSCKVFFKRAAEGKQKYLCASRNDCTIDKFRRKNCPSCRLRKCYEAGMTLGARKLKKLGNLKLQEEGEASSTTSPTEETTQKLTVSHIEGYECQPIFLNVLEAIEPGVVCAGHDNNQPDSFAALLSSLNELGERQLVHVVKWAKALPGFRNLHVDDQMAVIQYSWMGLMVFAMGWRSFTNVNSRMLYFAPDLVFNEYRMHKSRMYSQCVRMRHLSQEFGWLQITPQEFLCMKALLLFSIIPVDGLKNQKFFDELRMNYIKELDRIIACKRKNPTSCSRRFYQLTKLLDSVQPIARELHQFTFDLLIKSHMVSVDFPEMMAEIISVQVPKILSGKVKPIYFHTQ
It is filed as cell-based. To be noted: for Classification Run1: run 1; for Classification Run3: run 3; for Shift Direction of specificity control dose response: vs standard antagonist dose response. The text has this: (§1) For the antagonist assay, the medium was supplemented with DHT at EC50 concentration (standard assay). […] Each antagonist assay was accompanied by a specificity control test carried out on the same plate.
the square of the correlation coefficient (R^2) is ≤ 0.9 between the relative induction of the test item (Yc) and its specificity control (Sc)

In data set [2] the target is T1, human androgen receptor (hAR). In words: AR-CALUX antagonist assay (medium spiked with DHT at EC50). Format: cell-based. To be noted: for AR-CALUX Antagonist classification: mean of classifications, specificity control taken into account; for Antagonist classification per run, Lab 1: Lab 1, 3 runs; for Antagonist classification per run, Lab 2: Lab 2, 3 runs; for Antagonist classification per run, Lab 3: Lab 3, 3 runs; for Antagonist classification per run, Lab 4: Lab 4, 3 runs.
Description: (§2) The AR-CALUX® cell line was created by BioDetection Systems (BDS). It can be purchased from BDS with a license (https://www.biodetectionsystems.com). The human osteosarcoma cell line U2-OS (ATCC HTB 96) was transfected with 2 constructs: pSG5-neo-hAR carrying the cDNA of a human androgen receptor (hAR) under a constitutive promoter, and, a luciferase reporter gene which is preceded by a triple tandem of AREs in front of a TATA box (3x ARE Luc). […] The AR-CALUX® cell line was obtained from the test method developer BDS. EURL ECVAM prepared a master cell bank and a large working cell bank which were tested for the absence of mycoplasma, bacteria, fungi, and yeast and for the absence of Hepatitis B and C and HIV. In addition, to verifying the authenticity of the cell line, Short Tandem Repeat (STR) profiling was carried out to confirm the test system to be U2-OS cells. […] The laboratories were requested, at the end of each part of the study (Parts 1, 2, and 3), to perform a mycoplasma test of their choice. Additional aliquots were sent to EURL ECVAM for a reanalysis of authenticity.
(§3) Subsequently, the test chemical was assessed with a prescreen run (dilution steps of 10) and simultaneously with the quantitative cytotoxicity test to determine (1) cytotoxic concentrations, (2) the response, and (3) the appropriate dose range to be tested. […] The cytotoxicity test was performed once more. Test chemicals were diluted in media and consisted of 8 serial dilutions. Each dilution was tested in triplicate.
(§4) Each experiment (run) was comprised of a maximum of 6 plates. The first plate would contain 8 serial dilutions of the reference chemical DHT (for agonism) or Flutamide (for antagonism), while the positive and negative controls were added at fixed concentrations. In addition, a solvent control was added (medium without the chemical but with DMSO 0.1%).
as §1
A. Positive (competitive antagonist) when the relative induction (Yc) of the test item is ≤ 80% (REF RPC80) for two or more consecutive concentrations and […]

The next data set can be described thus: physchem. The procedure: It details the cell cultivation and seeding procedure, the preparation of the reference, control and test chemicals, the procedure for agonist testing and antagonist testing, prescreen runs, and comprehensive runs, as well as data analysis and data interpretation. This SOP also includes references to the SOPs for solubility testing and cytotoxicity testing. […] Solubility was tested both in the solvent and in media under similar circumstances as would be required during the (ant)agonist testing. The initial concentration to be tested was prescribed at 50 mg/ml. Starting from the highest soluble concentration, cytotoxicity was determined with an LDH assay. Visual checking of cytotoxicity in all wells of the plate was however also required for each run.
This included an investigation by heating, centrifugation, microscopy, and visual checking. […] For the purpose of the validation study, the labs were requested to start from 50 mg/ml as the maximal stock concentration to be tested.

Data set [3] addresses T1, human androgen receptor (hAR). In words: cell-based. Format: cell-based. To be noted: for Agonist classification per run, Lab 1: Lab 1, 3 runs; for Agonist classification per run, Lab 2: Lab 2, 3 runs; for Agonist classification per run, Lab 3: Lab 3, 3 runs; for Agonist classification per run, Lab 4: Lab 4, 3 runs.
Description: as §2, §3, §4
A. Positive when the relative induction (Yc) of the test item is ≥ 10% (REF RPC10) for two or more consecutive concentrations.

In the case of `C[C@]12CC[C@@H]3c4ccc(O)cc4C[C@@H](CCCCCCCCC[S+]([O-])CCCC(F)(F)C(F)(F)F)[C@H]3[C@@H]1CC[C@@H]2O` (some centres unmarked) [Fulvestrant], in data set [1], the “Scn (normalized dose response for the specificity control)” value is reported as more than 80% and the “Shift Direction of specificity control dose response” value was “Right”. For the same compound, in data set [1] (antagonist), the “Classification Run1” value was “N(FP)” and the “Classification Run3” value is “N(FP)b”. In data set [2], the “AR-CALUX antagonist result in words” value is given as “false positive” and the “AR-CALUX Antagonist classification” value is listed as “N(FP)”.
For the compound `CC(C)(c1ccc(O)cc1)c1ccc(O)cc1` [Bisphenol A], the solubility in “physchem” (aqueous buffer, kinetic from dmso stock, Solubility in medium, Lab 1) was 15 µg/mL (≈ 65.7 µM); in “physchem” (aqueous buffer, kinetic from dmso stock, Solubility in medium, Lab 2), more than 50 µg/mL; in “physchem” (aqueous buffer, kinetic from dmso stock, Solubility in medium, Lab 3), more than 50 µg/mL; in “physchem” (aqueous buffer, kinetic from dmso stock, Solubility in medium, Lab 4), more than 50 µg/mL; in “physchem” (organic solvent or mixture, thermodynamic from solid, Solubility in DMSO, Lab 1), more than 50000 µg/mL; in the data set “physchem” (organic solvent or mixture, thermodynamic from solid, Solubility in DMSO, Lab 2), more than 50000 µg/mL. Further, the solubility in “physchem” (organic solvent or mixture, thermodynamic from solid, Solubility in DMSO, Lab 3) is more than 50000 µg/mL; in “physchem” (organic solvent or mixture, thermodynamic from solid, Solubility in DMSO, Lab 4), more than 50000 µg/mL. Moreover, the “Antagonist classification per run, Lab 1” value in data set [2] was “P P P”. The “Antagonist classification per run, Lab 2” value in data set [2] is given as “P P P”. Also, the “Antagonist classification per run, Lab 3” value in data set [2] was “P P P”. Besides, the “Antagonist classification per run, Lab 4” value in data set [2] was “P P P”. Also, the IC50 in data set [2] (logIC50 averaged over 4 labs, 3 valid runs per lab, read-out: Antagonist Overall logIC50 (converted)) is 1380 nM. In data set [3], the “Agonist classification per run, Lab 1” value was “N N N”. Moreover, in data set [3], the “Agonist classification per run, Lab 2” value is “N N N”. In addition, in data set [3], the “Agonist classification per run, Lab 3” value is on record as “N N N”. Besides, the “Agonist classification per run, Lab 4” value in data set [3] was “N N N”.
On to `Cc1c2oc3c(C)ccc(C(=O)N[C@@H]4C(=O)N[C@H](C(C)C)C(=O)N5CCC[C@H]5C(=O)N(C)CC(=O)N(C)[C@@H](C(C)C)C(=O)O[C@@H]4C)c3nc-2c(C(=O)N[C@@H]2C(=O)N[C@H](C(C)C)C(=O)N3CCC[C@H]3C(=O)N(C)CC(=O)N(C)[C@@H](C(C)C)C(=O)O[C@@H]2C)c(N)c1=O` [Actinomycin D] (I: T[dV]P[Sar][NMeV] / II: T[dV]P[Sar][NMeV]; ester I:1-I:C, II:1-II:C; linker I:N-II:N via Actinocin(9to1)), for which, in data set [1], the “Scn (normalized dose response for the specificity control)” value is more than 80% and the “Shift Direction of specificity control dose response” value is on record as “Right”. Besides, in data set [1] (antagonist), the “Classification Run1” value was “N” and the “Classification Run3” value is recorded as “N(FP)”. For the same compound, the “Classification Run2” value in data set [1] (antagonist, run 2) is on record as “N(FP)”. For the same compound, in data set [2], the “AR-CALUX antagonist result in words” value is listed as “false positive response” and the “AR-CALUX Antagonist classification” value was “N(FP)”.
In the case of `[N-]=[N+]=[N-].[Na+]` [Sodium azide], the “Solubility in DMSO, Lab 1” value in the data set “physchem” (DMSO, Lab 1, highest tested 50 mg/ml) was found to be 15000 µg/mL. In “physchem” (DMSO, Lab 2, highest tested 50 mg/ml), the “Solubility in DMSO, Lab 2” value came out at 15000 µg/mL. In addition, in “physchem” (DMSO, Lab 3, highest tested 50 mg/ml), the “Solubility in DMSO, Lab 3” value was found to be 15000 µg/mL. Besides, the “Solubility in DMSO, Lab 4” value in the data set “physchem” (DMSO, Lab 4, highest tested 50 mg/ml) turned out to be 15000 µg/mL. Further, in “physchem” (assay medium, Lab 1), the “Solubility in medium, Lab 1” value was determined as 15 µg/mL. In addition, the “Solubility in medium, Lab 2” value in “physchem” (assay medium, Lab 2) came to 15 µg/mL. In the data set “physchem” (assay medium, Lab 3), the “Solubility in medium, Lab 3” value worked out at 15 µg/mL. In “physchem” (assay medium, Lab 4), the “Solubility in medium, Lab 4” value stood at 5 µg/mL. For the same compound, in data set [2], the “Antagonist classification per run, Lab 1” value is recorded as “N N N”; the “Antagonist classification per run, Lab 2” value was “N N N”; the “Antagonist classification per run, Lab 3” value was “N N N”; the “Antagonist classification per run, Lab 4” value was “N N N”. Further, in data set [3], the “Agonist classification per run, Lab 1” value was “N N N”; the “Agonist classification per run, Lab 2” value is given as “N N N”; the “Agonist classification per run, Lab 3” value is “N N N”; the “Agonist classification per run, Lab 4” value is reported as “N N N”.
For `CCN(CC)C(=S)SSC(=S)N(CC)CC` [Disulfiram], the solubility in “physchem” (aqueous buffer, kinetic from dmso stock, Solubility in medium, Lab 1, assay medium, Lab 1) is 5 µg/mL (≈ 16.9 µM); in “physchem” (aqueous buffer, kinetic from dmso stock, Solubility in medium, Lab 2, assay medium, Lab 2) it was 15 µg/mL (≈ 50.6 µM); in the data set “physchem” (aqueous buffer, kinetic from dmso stock, Solubility in medium, Lab 3, assay medium, Lab 3), 15 µg/mL (≈ 50.6 µM); in the data set “physchem” (aqueous buffer, kinetic from dmso stock, Solubility in medium, Lab 4, assay medium, Lab 4), 15 µg/mL (≈ 50.6 µM); in “physchem” (organic solvent or mixture, thermodynamic from solid, Solubility in DMSO, Lab 1, DMSO, Lab 1, highest tested 50 mg/ml), more than 50000 µg/mL; in “physchem” (organic solvent or mixture, thermodynamic from solid, Solubility in DMSO, Lab 2, DMSO, Lab 2, highest tested 50 mg/ml), more than 50000 µg/mL. For the same compound, the solubility in the data set “physchem” (organic solvent or mixture, thermodynamic from solid, Solubility in DMSO, Lab 3, DMSO, Lab 3, highest tested 50 mg/ml) is more than 50000 µg/mL; in “physchem” (organic solvent or mixture, thermodynamic from solid, Solubility in DMSO, Lab 4, DMSO, Lab 4, highest tested 50 mg/ml), more than 50000 µg/mL. Besides, the “Antagonist classification per run, Lab 1” value in data set [2] is on record as “N N N”. The “Antagonist classification per run, Lab 2” value in data set [2] is recorded as “N N N”. Moreover, the “Antagonist classification per run, Lab 3” value in data set [2] is on record as “N N N”. Besides, in data set [2], the “Antagonist classification per run, Lab 4” value was “N N N”. For the same compound, in data set [3], the “Agonist classification per run, Lab 1” value was “N N N”. Also, the “Agonist classification per run, Lab 2” value in data set [3] is listed as “N N N”. For the same compound, in data set [3], the “Agonist classification per run, Lab 3” value is listed as “N N N”. In addition, in data set [3], the “Agonist classification per run, Lab 4” value was “N N N”.
